From PubChem BioAssay AID256 (DTP/NCI, 2004)
Several values for one entry are separate records, joined by “and”; a condition that tells them apart may be missing. Equal entries are not always repeated. Inconclusive results and toxic doses are left out. Rule for the calls: active = survival T/C of 150% or more; inactive = T/C below 125% in these data.

Tested on: CD2F1 mice, L1210 leukemia ip, survival T/C
Assay: NCI In Vivo Anticancer Drug Screen. Data for tumor model L1210 Leukemia (intraperitoneal) in CD2F1 (CDF1) mice
Conditions: higher = longer survival
Description: The antitumor activity of compounds was measured in mice bearing transplantable tumors. Survival or tumor size were measured and the results are expressed as the measurement made in the treated group (T) divided by the measurement made in the vehicle treated control group (C). The tumor model used in this assay is L1210 Leukemia (intraperitoneal) in CD2F1 (CDF1) mice

[1] = endpoint: mean survival time, dose: 25.0 mg/kg/injection, schedule: Q01DX009 (ip), vehicle: saline with Tween-80
[2] = endpoint: mean survival time, dose: 50.0 mg/kg/injection, schedule: Q01DX009 (ip), vehicle: saline with Tween-80
[3] = endpoint: mean survival time, dose: 100.0 mg/kg/injection, schedule: Q01DX009 (ip), vehicle: saline with Tween-80
[4] = endpoint: mean survival time, dose: 100.0 mg/kg/injection, schedule: Q01DX001 (ip), vehicle: saline with Tween-80
[5] = endpoint: mean survival time, dose: 100.0 mg/kg/injection, schedule: Q04DX002 (ip), vehicle: saline with Tween-80
[6] = endpoint: mean survival time, dose: 200.0 mg/kg/injection, schedule: Q01DX001 (ip), vehicle: saline with Tween-80
[7] = endpoint: mean survival time, dose: 200.0 mg/kg/injection, schedule: Q04DX002 (ip), vehicle: saline with Tween-80
[8] = endpoint: mean survival time, dose: 400.0 mg/kg/injection, schedule: Q01DX001 (ip), vehicle: saline with Tween-80
[9] = endpoint: mean survival time, dose: 400.0 mg/kg/injection, schedule: Q04DX002 (ip), vehicle: saline with Tween-80
[10] = endpoint: mean survival time, dose: 50.0 mg/kg/injection, schedule: Q04DX002 (ip), vehicle: saline with Tween-80
[11] = endpoint: mean survival time, dose: 100.0 mg/kg/injection, schedule: Q04DX003 (ip), vehicle: saline with Tween-80
[12] = endpoint: mean survival time, dose: 200.0 mg/kg/injection, schedule: Q01DX009 (ip), vehicle: saline with Tween-80
[13] = endpoint: mean survival time, dose: 400.0 mg/kg/injection, schedule: Q01DX009 (ip), vehicle: saline with Tween-80
[14] = endpoint: mean survival time, dose: 100.0 mg/kg/injection, schedule: Q01DX001 (ip), vehicle: saline
[15] = endpoint: mean survival time, dose: 200.0 mg/kg/injection, schedule: Q01DX001 (ip), vehicle: saline
[16] = endpoint: mean survival time, dose: 400.0 mg/kg/injection, schedule: Q01DX001 (ip), vehicle: saline
[17] = endpoint: mean survival time, dose: 100.0 mg/kg/injection, schedule: Q01DX009 (ip), vehicle: saline
[18] = endpoint: mean survival time, dose: 200.0 mg/kg/injection, schedule: Q01DX009 (ip), vehicle: saline
[19] = endpoint: mean survival time, dose: 400.0 mg/kg/injection, schedule: Q01DX009 (ip), vehicle: saline

Measured: T/C

O=C(NCCCl)Nc1cc(Cl)cc(Cl)c1
inactive: [1] 97 % of control | [2] 100 % of control | [3] 88 % of control and 96 % of control

CCCCCCCCCCCCN1CCCC(O)C1 (stereo not given)
inactive: [1] 116 % of control | [2] 92 % of control and 105 % of control | [3] 105 % of control and 111 % of control

CCN(CC)n1c(=O)[nH]n(CC)c1=O
inactive: [4] 101 % of control | [5] 101 % of control | [6] 97 % of control | [7] 93 % of control | [8] 100 % of control | [9] 101 % of control

O=c1c(Br)cocc1Br
inactive: endpoint: mean survival time, dose: 100.0 mg/kg/injection, schedule: Q04DX003 (ip), vehicle: saline sonified 104 % of control | endpoint: mean survival time, dose: 200.0 mg/kg/injection, schedule: Q04DX003 (ip), vehicle: saline sonified 102 % of control | endpoint: mean survival time, dose: 400.0 mg/kg/injection, schedule: Q04DX003 (ip), vehicle: saline sonified 102 % of control

COc1ccccc1N=Nc1c(O)n(-c2ccccc2OC)c(=S)n(-c2ccccc2OC)c1=O
inactive: [10] 98 % of control | [4] 93 % of control | [5] 94 % of control | [6] 94 % of control | [7] 102 % of control

CCCCCCCCOC(=O)c1ccccc1C(=O)OCCCCCCCC
inactive: [3] 110 % of control | [11] 98 % of control | [12] 102 % of control | endpoint: mean survival time, dose: 200.0 mg/kg/injection, schedule: Q04DX003 (ip), vehicle: saline with Tween-80 93 % of control | [13] 98 % of control | endpoint: mean survival time, dose: 400.0 mg/kg/injection, schedule: Q04DX003 (ip), vehicle: saline with Tween-80 90 % of control

COc1cc2c(cc1Oc1c(O)c(OC)cc3c1C(C)N(C)CC3)C(C)N(C)CC2 (stereo not given)
inactive: endpoint: mean survival time, dose: 75.0 mg/kg/injection, schedule: Q01DX001 (ip), vehicle: saline 101 % of control

CCOC(=O)c1cc(=O)cc(C(=O)OCC)o1
inactive: [4] 100 % of control | [6] 100 % of control | [8] 100 % of control

NC(=S)NNc1c(NNC(N)=S)c(=O)c1=O
inactive: [14] 93 % of control | [15] 98 % of control | [16] 102 % of control

Cc1cc(=O)c2c(=O)[nH][nH]c2[nH]1
inactive: [3] 98 % of control | [12] 104 % of control

O=C(N/N=C/c1cc2c(cc1[N+](=O)[O-])OCO2)c1ccccc1
inactive: endpoint: mean survival time, dose: 12.5 mg/kg/injection, schedule: Q01DX009 (ip), vehicle: other 100 % of control | endpoint: mean survival time, dose: 25.0 mg/kg/injection, schedule: Q01DX009 (ip), vehicle: other 104 % of control | endpoint: mean survival time, dose: 50.0 mg/kg/injection, schedule: Q01DX009 (ip), vehicle: other 94 % of control | endpoint: mean survival time, dose: 100.0 mg/kg/injection, schedule: Q01DX009 (ip), vehicle: other 96 % of control | endpoint: mean survival time, dose: 200.0 mg/kg/injection, schedule: Q01DX009 (ip), vehicle: other 94 % of control

CCOC(=O)CCN(CC)CC
inactive: [17] 106 % of control | [18] 97 % of control | [19] 97 % of control

NC(=O)c1csc(COC(CO)CO)n1
inactive: endpoint: median survival time, dose: 15.38 mg/kg/injection, schedule: Q01DX009 (ip), vehicle: water 93 % of control | endpoint: median survival time, dose: 30.75 mg/kg/injection, schedule: Q01DX009 (ip), vehicle: water 97 % of control | endpoint: median survival time, dose: 61.5 mg/kg/injection, schedule: Q01DX009 (ip), vehicle: water 101 % of control | endpoint: median survival time, dose: 123.0 mg/kg/injection, schedule: Q01DX009 (ip), vehicle: water 100 % of control

COc1cc(Cl)ccc1NC(=O)Oc1ccc([N+](=O)[O-])cc1
inactive: [2] 96 % of control | [3] 96 % of control | [12] 100 % of control

CCN(CC)C(=O)Nc1ccccc1Cl
inactive: [5] 105 % of control | [7] 108 % of control | [9] 94 % of control

CCN=C(N)C(N)=NCC (tested in a mixture with another compound)
inactive: endpoint: mean survival time, dose: 25.0 mg/kg/injection, schedule: Q04DX002 (ip), vehicle: saline with Tween-80 98 % of control | [10] 98 % of control | [5] 93 % of control and 98 % of control | [7] 96 % of control and 87 % of control | [9] 93 % of control

CC(=O)Oc1ccccc1C(=O)O
inactive: endpoint: mean survival time, dose: 31.3 mg/kg/injection, schedule: Q01DX009 (ip), vehicle: saline sonified 106 % of control | endpoint: mean survival time, dose: 31.3 mg/kg/injection, schedule: Q01DX009 (ip), vehicle: saline with Tween-80 100 % of control | endpoint: mean survival time, dose: 50.0 mg/kg/injection, schedule: Q03HX024 (ip), vehicle: saline 97 % of control | endpoint: mean survival time, dose: 62.5 mg/kg/injection, schedule: Q01DX009 (ip), vehicle: saline sonified 101 % of control | endpoint: mean survival time, dose: 62.5 mg/kg/injection, schedule: Q01DX009 (ip), vehicle: saline with Tween-80 98 % of control | endpoint: mean survival time, dose: 100.0 mg/kg/injection, schedule: Q03HX024 (ip), vehicle: saline 97 % of control | endpoint: mean survival time, dose: 125.0 mg/kg/injection, schedule: Q01DX009 (ip), vehicle: saline sonified 98 % of control | endpoint: mean survival time, dose: 125.0 mg/kg/injection, schedule: Q01DX009 (ip), vehicle: saline with Tween-80 96 % of control and 100 % of control | endpoint: mean survival time, dose: 250.0 mg/kg/injection, schedule: Q01DX009 (ip), vehicle: saline with Tween-80 96 % of control | endpoint: mean survival time, dose: 500.0 mg/kg/injection, schedule: Q01DX001 (ip), vehicle: saline with Tween-80 104 % of control | endpoint: mean survival time, dose: 1000.0 mg/kg/injection, schedule: Q01DX001 (ip), vehicle: saline with Tween-80 104 % of control

O=C1C(=O)c2cccc3cccc1c23
inactive: [4] 100 % of control | [6] 92 % of control | [8] 97 % of control

NC(N)=NNC(=O)C(=O)O
inactive: [17] 98 % of control | [18] 110 % of control | [19] 100 % of control

COC(=O)C1=C(N)CCc2ccccc21
inactive: [3] 91 % of control | [12] 96 % of control | [13] 96 % of control

O=C(O)CCOc1ccc([N+](=O)[O-])cc1
inactive: [3] 96 % of control | [12] 98 % of control | [13] 94 % of control

CC1[N-]CCC[N-]CCC[N-]C(C)C2CCCC1[N-]2.[Ni+2].[O-][Cl+3]([O-])([O-])O (stereo not given)
inactive: [10] 104 % of control | [5] 101 % of control and 104 % of control | [7] 93 % of control

[CH3][Pb]([CH3])([CH3])[Cl]
inactive: endpoint: mean survival time, dose: 1.56 mg/kg/injection, schedule: Q01DX009 (ip), vehicle: saline 97 % of control | endpoint: mean survival time, dose: 1.56 mg/kg/injection, schedule: Q04DX002 (ip), vehicle: saline 101 % of control | endpoint: mean survival time, dose: 3.13 mg/kg/injection, schedule: Q01DX009 (ip), vehicle: saline 87 % of control | endpoint: mean survival time, dose: 3.13 mg/kg/injection, schedule: Q04DX002 (ip), vehicle: saline 108 % of control | endpoint: mean survival time, dose: 6.25 mg/kg/injection, schedule: Q04DX002 (ip), vehicle: saline 92 % of control | endpoint: mean survival time, dose: 12.5 mg/kg/injection, schedule: Q04DX002 (ip), vehicle: saline 93 % of control

O=C(O)C(=O)O
inactive: [15] 92 % of control | [16] 97 % of control

CCCC/C=C/C(=O)O
inactive: [2] 98 % of control | [3] 98 % of control | [12] 102 % of control

CN(C)CCNC(=O)C(c1ccccc1)c1ccccc1
inactive: [11] 104 % of control

CC1CN1CCCNC(=O)C(=O)NCCCN1CC1C (stereo not given)
active: [14] 182 % of control

CN(C)C(Cl)(Cl)Nc1ccc(Cl)cc1
inactive: [3] 91 % of control | [12] 107 % of control | [13] 113 % of control
